Measured values from patent US11466005B2, “Tricyclic compounds” (JACOBIO PHARMACEUTICALS CO., LTD., priority 2018, dated 2022).

Tests used:
BRD4(BD1) = BRD4(BD1) (Homo sapiens (Human), UniProt O60885); assay: BRD4(BD1) biochemical binding assay (HTRF); details: biotinylated H4 derived acetylated peptide
Procedure: 1. BRD4(BD1) Binding Assays
The BRD4(BD1) biochemical binding assay was performed by Sundia MediTech Co. Ltd. in 384-well white plate (OptiPlate-384, PerkinElmer) using HTRF technology.
Briefly, 20 nL of compounds were transferred to the 384-well plate by Echo® 550 liquid handler (Labcyte, USA), then 5 μL of BRD4(BD1) (Reaction Biology Company, RD-11-157) solution or the assay buffer was added to each well. After incubating at RT for 15 min, 5 μL of the biotinylated H4 derived acetylated peptide (synthesized by GL Biochem (Shanghai) Ltd) and 10 μL of the detection solution (Cisbio Assay) were added to each well. After incubating for 1 h at RT, the HTRF signal was measure at 615 nm and 665 nm using the EnVision Multilabel Plate Reader (PerkinElmer, USA). Results were analyzed with a two-wavelength signal ratio: intensity (665 nm)/intensity (615 nm). The inhibition percentage in the presence of the compound was calculated according to the equation, Percent inhibition=(Max−Signal)/(Max−Min)*100%. Fit the data in GraphPad Prism V5.0 software (San Diego, Calif.) to obtain IC50 values with nonlinear regression analysis using equation, Y=Bottom+(Top−Bottom)/(1+10^((Log IC50−X)×HillSlope), where Y stands for inhibition percentage and X stands for compound concentration.

MV-4-11 cells = assay: MV-4-11 cell proliferation assay (MTS); assay type: cell-based; details: Homo sapiens, MV4-11, 72 h, 3 days culture
Procedure: 2. Cell Proliferation Assay
MV-4-11 cell proliferation analysis was conducted by the MIS (3-(4,5-dimethylthiazol-2-yl)-5-(3-carboxymethoxyphenyl)-2-(4-sulfophenyl)-2H-tetrazolium, inner salt) assay. Briefly, MV-4-11 cells will be cultured in IMDM (Iscove's Modified Dubecco's Medium) medium supplemented with 10% (v/v) FBS (fetal bovine serum), under the temperature of 37° C., […] and 95% humidity. The cells will be harvested respectively during the logarithmic growth period and counted with hemocytometer. The cell viability is over […] by trypan blue exclusion. Adjust MV-4-11 cells concentrations to 1.2×10^5 cells/mL with complete medium. Add 100 μL cell suspensions to 96-well plates (triplicates for each cell concentration), the final cell densities are 1.2×10^4 cells/well. The next day, dissolve the test compound with DMSO as stock solution. Dispense 5 μL of the stock solution in 1 mL culture media and add 25 μL drug media into 96-well plates. After serially diluting with culture media, the final concentration of the compound will be 0, 0.03, 0.1, 0.3, 1, 3, 10, 30, 100 nM. The plates will be cultured for 3 days, then measured by means of MTS assay. Add PMS (phenazinium methosulfate) solution to MITS solution (1:20) immediately before addition to the culture plate containing cells. Pipet 20 μL of the combined MTS/PMS Solution into each well of the 96 well assay plate containing 100 μL of cells in culture medium. Incubate the plate for 1-4 hours at 37° C. in a humidified, 5% CO2 atmosphere. Record the absorbance at 490 nm using a microplate spectrophotometer (Envision®, PeikinElmer). Fit the data using GraphPad 5.0 and obtain IC50 values.

Row | SMILES | IC50 (BRD4(BD1)) [nM] | IC50 (MV-4-11 cells) [nM]
1 | CC(=O)Nc1nn(C)c2c3ncc(-c4c(C)nnn4C)cc3n([C@H](c3ccccc3)C3CCOCC3)c12 [Compound 29, (S)—N-(6-(1,4-dimethyl-1H-1,2,3-triazol-5-yl)-1-methyl-4-(phenyl(tetrahydro-2H-pyran-4-yl)methyl)-1,4-dihydropyrazolo[3′,4′:4,5]pyrrolo[3,2-b]pyridin-3-yl)acetamide] | 1.9 | 24.7
2 | Cc1nnn(C)c1-c1cnc2c3c(c(CN4CCOCC4)nn3C)n(C(c3ccccc3)C3CCOCC3)c2c1 (stereo not shown) [Compound 34, 4-((6-(1,4-dimethyl-1H-1,2,3-triazol-5-yl)-1-methyl-4-(phenyl(tetrahydro-2H-pyran-4-yl)methyl)-1,4-dihydropyrazolo[3′,4′:4,5]pyrrolo[3,2-b]pyridin-3-yl)methyl)morpholine] | 0.34 | 2.16
